Results on one compound are retold here after patent US11912670B1, “Ethyl 4-(5-(3-fluorophenyl)-4-phenyl-4H-1,2,4-triazol-3-ylthio)butanoate as an antimicrobial compound” (KING FAISAL UNIVERSITY, priority 2023, dated 2024).

Type in all cases: cell-based
For one test, the system named is Pseudomonas aeruginosa. In words: Agar plate disc-diffusion, antibacterial (gram negative). As to conditions: nutrient agar, 37° C., 48 hours, DMSO control zone subtracted. How it is done:
(§1) The agar plate disc-diffusion method was applied. […] The discs were then placed onto the surface of agar plates (nutrient agar for bacteria and Sabouraud's dextrose agar for fungi) seeded with the test organism. Each plate contained 15 mL of the agar medium, previously seeded with 0.2 mL of the broth culture of each organism pregrown for 18 hours. The plates were incubated at 37° C. for 48 hours, and 72 hours for fungi. The inhibition zones were measured in mm. Discs impregnated with DMSO were used as a control, and its inhibition zone was subtracted from the tested compound actual inhibition zone.

Another test deals with Escherichia coli. The test is described as above. The conditions noted are these: nutrient agar, 37° C., 48 hours, DMSO control zone subtracted. On the procedure: as §1
In a further test the test system is Aspergillus flavus. The test can be described thus: Agar plate disc-diffusion, antifungal. As to conditions: Sabouraud's dextrose agar, 72 hours, DMSO control zone subtracted. On the procedure: as §1
A general note: A growth-free zone around the sample is the usual read-out of agar diffusion tests.

The subject of test [1] is Chrysosporium keratinophilum. The test can be described thus: Agar plate disc-diffusion, antifungal. As to conditions: Sabouraud's dextrose agar, 72 hours, DMSO control zone subtracted. On the procedure:
as §1

A further test deals with Bacillus cereus. The test can be described thus: Agar plate disc-diffusion, antibacterial (gram positive). The conditions noted are these: nutrient agar, 37° C., 48 hours, DMSO control zone subtracted. On the procedure: as §1
A further test concerns Staphylococcus aureus. The test is described as above. As to conditions: nutrient agar, 37° C., 48 hours, DMSO control zone subtracted. On the procedure:
as §1

[2] abbreviates: A = concentration of comp. = 10,000 μL.
The mark [3] stands for this setting: B = concentration of comp. = 30,000 μL.
Setting [4] is: C = concentration of comp. = 50,000 μL.

Consider `CCOC(=O)CCCSc1nnc(-c2cccc(F)c2)n1-c1ccccc1` [III, ethyl 4-(5-(3-fluorophenyl)-4-phenyl-4H-1,2,4-triazol-3-ylthio)butanoate], for which the “inhibition zone, Pseudomonas aeruginosa, A” value in the test with Pseudomonas aeruginosa (setting [2]) was 25 mm. Besides, the “inhibition zone, Pseudomonas aeruginosa, B” value with Pseudomonas aeruginosa (setting [3]) was 29 mm. In the test with Pseudomonas aeruginosa (setting [4]), the “inhibition zone, Pseudomonas aeruginosa, C” value was found to be 46 mm. The “inhibition zone, Escherichia coli, A” value with Escherichia coli (setting [2]) is given as 22 mm. Besides, the “inhibition zone, Escherichia coli, B” value with Escherichia coli (setting [3]) turned out to be 29 mm. In addition, the “inhibition zone, Escherichia coli, C” value with Escherichia coli (setting [4]) is reported as 42 mm. In the test with Aspergillus flavus (setting [2]), the “inhibition zone, Aspergillus flavus, A” value is on record as 26 mm. For the same compound, the “inhibition zone, Aspergillus flavus, B” value with Aspergillus flavus (setting [3]) was 28 mm. The “inhibition zone, Aspergillus flavus, C” value with Aspergillus flavus (setting [4]) was found to be 40 mm. For the same compound, in test [1] (A = concentration of comp. = 10,000 μg/mL), the “inhibition zone, Chrysosporium keratinophilum, A” value is given as 25 mm. In addition, the “inhibition zone, Chrysosporium keratinophilum, B” value in test [1] (setting [3]) came out at 28 mm. The “inhibition zone, Chrysosporium keratinophilum, C” value in test [1] (setting [4]) worked out at 48 mm. In the test on Bacillus cereus (setting [2]), the “inhibition zone, Bacillus Cereus, A” value came out at 27 mm. The “inhibition zone, Bacillus Cereus, B” value in the test on Bacillus cereus (setting [3]) is 29 mm. Also, in the test with Bacillus cereus (setting [4]), the “inhibition zone, Bacillus Cereus, C” value came out at 40 mm. Further, the “inhibition zone, Staphylococcus aureus, A” value in the test with Staphylococcus aureus (setting [2]) came to 18 mm. Also, the “inhibition zone, Staphylococcus aureus, B” value in the test on Staphylococcus aureus (setting [3]) was determined as 25 mm. Further, the “inhibition zone, Staphylococcus aureus, C” value in the test on Staphylococcus aureus (setting [4]) is on record as 30 mm.
